In patent US9724408B2, “Compositions and methods for activating stimulator of interferon gene-dependent signalling” (ADURO BIOTECH, INC., priority 2013, dated 2017):

Experiments:
[1] = tested on: 4T1 mammary carcinoma cells; experiment: Abscopal model, 4T1 tumors on contralateral flanks, primary tumor injected; format: in vivo, BALB/c mice; conditions: 50 μg into the primary tumor only, three injections
From the text: (§1) The STING-dependent induction of tumor-specific T cell immunity protects animals against subsequent challenge with the autologous tumor. It will be apparent to those skilled in the art that advanced cancer is metastatic, and that to be effective, therapies must inhibit outgrowth of distal masses. Treatment of one or selected lesions that inhibits tumor outgrowth of distal untreated tumor masses is known as an abscopal effect. To test whether IT injection of a selected tumor with synthetic CDN derivative molecules inhibited the tumor outgrowth of a distal untreated tumor, (A) CT26 colon carcinoma cells (1×10^5 cells in 100 μL PBS) and (B) 4T1 mammary carcinoma cells (1×10^5 cells in 100 μL PBS) were implanted subcutaneously on the contralateral flanks of 6-8 week old female BALB/c mice (8 mice per group). Treatments began when tumors reached a volume of approximately 75 mm^3, on day 13 post tumor implantation. The Rp, Rp dithio cyclic [A(2′,5′)pA(3′,5′)p] (ML RR-CDA) compound (50 μg in a total volume of 40 μL HBSS), or HBSS vehicle control, was administered by subcutaneous injection into the center of the primary (right side) tumor only using a 27 gauge needle. Injections were repeated every three days, for a total of three intratumoral injections.

[2] = tested on: CT26 colon carcinoma cells; experiment: Abscopal model, CT26 tumors on contralateral flanks, primary tumor injected; format: in vivo, BALB/c mice; conditions: 50 μg into the primary tumor only, three injections
From the text: as §1

AH1 peptide = experiment: AH1-specific IFN-γ ELISpot of PBMCs from treated CT26-bearing mice; format: in vivo, BALB/c mice; conditions: day 18 post tumor implantation, 1 μM AH1 peptide, P=0.003, FIG. 21B
Method: (§2) To determine whether the synthetic derivative CDN molecules elicit durable and effective anti-tumor T-cell immunity, 6-8 week old female BALB/c mice (8 mice per group) were implanted with CT26 colon carcinoma cells (1×10^5 cells in 100 μL PBS). Mice were treated with Rp, Rp dithio cyclic [A(2′,5′)pA(3′,5′)p] (ML RR-CDA) compound ([…] in a total volume of 40 μL HBSS) or HBSS vehicle control, and tumor growth was monitored as per previous example. Mice were bled on day 18 post tumor implantation and PBMCs were isolated by Ficoll gradient (Miltenyi Biotech). 5×10^4 PBMCs were stimulated overnight in an IFNγ ELISpot assay with media alone (unstimulated), or with 1 μM of the endogenous H-2 L^d-restricted tumor rejection antigen AH1 peptide in the presence of 1×10^5 naïve splenocytes as feeder cells. IFN-γ ELISpot plates were developed and quantified using a CTL plate reader and ImmunoSpot software. On day 55 post tumor implantation, surviving mice and age-matched naïve control mice were implanted on the contralateral flank with either CT26 or 4T1 (both 1×10^5 cells in 100 μL PBS) tumor cells (4 mice per group), and monitored for tumor growth.

B16 melanoma cells = experiment: Abscopal model, B16 flank tumor plus intravenous B16 lung colonization; format: in vivo, C57BL/6 mice; conditions: three injections
Method: To determine whether the synthetic CDN derivative molecules promote abscopal anti-tumor immunity in an alternative tumor model and mouse genetic background, 6-8 week old female C57BL/6 mice (8 mice per group) were implanted with B16 melanoma cells (5×10^4 cells in 100 μL PBS) in the right flank. One week later mice were implanted intravenously with 1×10^5 B16 melanoma cells to colonize the lung, along with a group of naïve age-matched control mice. When the subcutaneous flank tumor reached approximately 75 mm^3 on day 13, mice were treated intratumorally with Rp, Rp dithio cyclic [A(2′,5′)pA(3′,5′)p] (ML RR-CDA) (50 μg in a total volume of 40 μL HBSS) or HBSS vehicle control, for three injections as per previous protocol. On day 28 post subcutaneous tumor implantation (day 21 post i.v. implantation), mice were euthanized and lungs were harvested and fixed (10% Neutral Buffered Formalin), and the number of lung tumor nodules counted using a dissecting microscope.

4T1 = experiment: Re-challenge of surviving mice with 4T1 tumor cells on the contralateral flank; format: in vivo, BALB/c mice
Method: as §2, with “growth. […]” for “growth.”

CT26 = experiment: Re-challenge of surviving mice with CT26 tumor cells on the contralateral flank; format: in vivo, BALB/c mice
Method: as §2, with “growth. […]” for “growth.”

[3] = tested on: 4T1 mammary carcinoma cells; experiment: 4T1 mammary carcinoma flank tumor model, intratumoral CDN; format: in vivo, BALB/c mice
Method: (§3) Either CT26 colon carcinoma cells (1×10^5 cells in 100 μL PBS) or 4T1 mammary carcinoma cells (1×10^5 cells in 100 μL PBS) were implanted subcutaneously on the flanks of 6-8 week old female BALB/c mice (8 mice per group). Treatments began when tumors reached a volume of approximately 75 mm^3, which was approximately day 14 post tumor implantation. The compounds Rp, Rp dithio cyclic [A(2′,5′)pA(3′,5′)p] (ML RR-CDA) or Rp, Rp dithio cyclic [G(2′,5′)pG(3′,5′)p] (ML RR-CDG) compounds (25 μg in a total volume of 40 μL HBSS), or HBSS vehicle control, and Rp, Rp dithio cyclic [A(2′,5′)pA(3′,5′)p] (ML RR-CDA) (50 μg in a total volume of 40 μL HBSS) or HBSS vehicle control, were administered by subcutaneous injection into the center of the tumor using a 27 gauge needle. Injections were repeated every three days, for a total of three intratumoral injections.
To determine whether CDN derivative molecules induce effective and durable anti-tumor immunity in an alternate tumor model, 6-8 week old female BALB/c mice (8 mice per group) were implanted with 4T1 mammary carcinoma cells (1×10^5 cells in 100 μL PBS). […] On day 35 post tumor implantation, surviving mice and age-matched naïve control mice were implanted on the contralateral flank with either CT26 or 4T1 (both 1×10^5 cells in 100 μL PBS) tumor cells (4 mice per group), and monitored for tumor growth.

[4] = tested on: CT26 colon carcinoma cells; experiment: CT26 colon carcinoma flank tumor model, intratumoral CDN; format: in vivo, BALB/c mice; conditions: for complete inhibition of tumor growth of established CT26 tumors: every three days, three injections, 8 mice per group, FIG. 19B
Method: as §3, §2

[5] = re-challenge on day 35 post tumor implantation, FIG. 22B
[6] = re-challenge on day 55 post tumor implantation, FIG. 21C

Structure (SMILES): Nc1ncnc2c1ncn2[C@@H]1O[C@@H]2COP(O)(=S)O[C@@H]3C(O)[C@@H](COP(O)(=S)O[C@H]2[C@H]1O)O[C@H]3n1cnc2c(N)ncnc21 (stereo partly shown) [ML RR-CDA, dithio-[RP, RP]-cyclic-[A(2′,5′)pA(3′,5′)p]]
- inhibition of the treated primary tumor, 4T1 ([1]; FIG. 23B): complete inhibition of the treated primary tumor
- outgrowth of the contralateral (untreated) tumor, 4T1 ([1]; P=0.0019, FIG. 23B): significantly inhibited
- inhibition of the treated primary tumor, CT26 ([2]; FIG. 23A): complete inhibition of the treated primary tumor
- outgrowth of the contralateral (untreated) tumor, CT26 ([2]; P=0.0011, FIG. 23A): significantly inhibited
- IFN-γ production of PBMCs in response to AH1 peptide (AH1 peptide): significantly higher IFN-γ in response to AH1 peptide stimulation, as compared to the HBSS-treated control group
- growth of distal lung tumor nodules (B16 melanoma cells; 50 μg into the flank tumor, lungs on day 28, FIG. 24B, 24C): significantly inhibited the growth of distal lung tumor nodules
- tumor growth of the primary flank tumor (B16 melanoma cells; 50 μg intratumoral, P<0.001, FIG. 24A): significantly inhibited tumor growth of the primary flank tumor
- protection against 4T1 re-challenge, survivors of 4T1 tumors (4T1; [5]): complete protection
- protection against 4T1 re-challenge, survivors of CT26 tumors (4T1; [6]): not inhibiting growth of the 4T1 tumor type
- protection against CT26 re-challenge, survivors of 4T1 tumors (CT26; [5]): complete protection
- protection against CT26 re-challenge, survivors of CT26 tumors (CT26; [6]): complete protection against the same CT26 tumor type
- inhibition of tumor growth of established 4T1 mammary carcinomas ([3]; 50 μg intratumoral, FIG. 22A): completely inhibited tumor growth of established 4T1 mammary carcinomas
- inhibition of tumor growth of established 4T1 mammary tumors ([3]; intratumoral, every three days, three injections, 8 mice per group, FIG. 19C): completely inhibited tumor growth of all established 4T1 mammary tumors
- rejection of established CT26 colon carcinomas ([4]; 50 mg in a total volume of 40 μL HBSS, FIG. 21A): all mice treated with ML RR-CDA rejected the growth of established CT26 colon carcinomas
- complete inhibition of tumor growth of established CT26 tumors [4]: completely inhibited tumor growth of all established CT26 tumors

Structure (SMILES): Nc1nc2c(ncn2[C@@H]2O[C@@H]3CO[P@@](O)(=S)O[C@@H]4[C@H](O)[C@@H](CO[P@@](O)(=S)O[C@H]3[C@H]2O)O[C@H]4n2cnc3c(=O)[nH]c(N)nc32)c(=O)[nH]1 [ML RR-CDG, dithio-[RP,RP]-cyclic-[G(2′,5′)pG(3′,5′)p]]
- complete inhibition of tumor growth of established CT26 tumors [4]: 7 out of 8
